One test deals with E. coli mL308 225. Nature of the test: In Vitro Anti-Bacterial Activity Assay (MIC), gram negative. The format is cell-based. The following applies: Escherichia coli, ML308225, 18 h.
For a further test, the system named is S. aureus RN450. Kind of test: In Vitro Anti-Bacterial Activity Assay (MIC), gram positive. In kind it is cell-based. The conditions noted are these: Staphylococcus aureus, RN450, 18 h.
[1] abbreviates: gram negative bacteria, read-out: Antibiotic Activity Gram − (MIC).
Setting [2] is: gram positive bacteria, read-out: Antibiotic Activity Gram + (MIC).
The mark [3] stands for this setting: MIC class, Table 3 (Continued), read-out: Gram− activity.
The mark [4] stands for this setting: MIC class, Table 3 (Continued), read-out: Gram+ activity.
Where [5] appears, read: MIC class, Table 3, read-out: Antibiotic Activity Gram −.
Setting [6] is: MIC class, Table 3, read-out: Antibiotic Activity Gram +.

Like-named read-outs stand apart in the source and are kept apart here. Bounds are passed on as bounds.

On to `C/C(=N/OCC(C)C)c1ccc(O)c2c1C[C@H]1C[C@H]3[C@H](N(C)C)C(O)=C(C(N)=O)C(=O)[C@@]3(O)C(O)=C1C2=O`, for which the MIC in the test with E. coli mL308 225 (setting [1]) and with S. aureus RN450 (setting [2]) was below 4 µg/mL throughout.

With `CN(C)[C@@H]1C(O)=C(C(N)=O)C(=O)[C@@]2(O)C(O)=C3C(=O)c4c(O)ccc(/C=C/c5ccccc5)c4C[C@H]3C[C@@H]12`, the MIC in the test with E. coli mL308 225 (setting [3]) and in the test on S. aureus RN450 (setting [4]) was below 4 µg/mL each time.

Turning to `Cc1csc(NCc2cc(N(C)C)c3c(c2O)C(=O)C2=C(O)[C@]4(O)C(=O)C(C(N)=O)=C(O)C(N(C)C)[C@@H]4C[C@@H]2C3)n1` (stereo partly shown) [MS], the MIC in the test on E. coli mL308 225 (setting [5]) is above 4 µg/mL; in the test on S. aureus RN450 (setting [6]) it was below 4 µg/mL.

For the molecule `CCCCCCc1ccc(O)c2c1C[C@H]1C[C@H]3[C@H](N(C)C)C(O)=C(C(N)=O)C(=O)[C@@]3(O)C(O)=C1C2=O`, the MIC with E. coli mL308 225 (setting [1]) and in the test on S. aureus RN450 (setting [2]) was below 4 µg/mL each time.

As to `Cc1cc(C)cc(-c2cc(N(C)C)c3c(c2O)C(=O)C2=C(O)[C@]4(O)C(=O)C(C(N)=O)=C(O)[C@@H](N(C)C)[C@@H]4C[C@@H]2C3)c1`, the MIC in the test on E. coli mL308 225 (setting [3]) and in the test on S. aureus RN450 (setting [4]) was below 4 µg/mL throughout.

In the case of `COc1ccc(CNC(C)C)cc1-c1ccc(O)c2c1C[C@H]1C[C@H]3[C@H](N(C)C)C(O)=C(C(N)=O)C(=O)[C@@]3(O)C(O)=C1C2=O` [LR], the MIC in the test on E. coli mL308 225 (setting [5]) and in the test with S. aureus RN450 (setting [6]) was below 4 µg/mL throughout.

For `CN(C)[C@@H]1C(O)=C(C(N)=O)C(=O)[C@@]2(O)C(O)=C3C(=O)c4c(O)ccc(C(=O)O)c4C[C@H]3C[C@@H]12`, the MIC in the test on E. coli mL308 225 (setting [1]) and in the test on S. aureus RN450 (setting [2]) was above 4 µg/mL each time.

For the molecule `CN(C)Cc1ccc(-c2cc(N(C)C)c3c(c2O)C(=O)C2=C(O)[C@]4(O)C(=O)C(C(N)=O)=C(O)[C@@H](N(C)C)[C@@H]4C[C@@H]2C3)o1` [LI], the results for the MIC in the test with E. coli mL308 225 (setting [5]) and in the test with S. aureus RN450 (setting [6]) were above 4 µg/mL and below 4 µg/mL, respectively.

As for `CC(=O)Cc1cc(N(C)C)c2c(c1O)C(=O)C1=C(O)[C@]3(O)C(=O)C(C(N)=O)=C(O)[C@@H](N(C)C)[C@@H]3C[C@@H]1C2`, the MIC in the test with E. coli mL308 225 (setting [1]) is above 4 µg/mL; in the test on S. aureus RN450 (setting [2]) it was below 4 µg/mL.

Turning to `CN(C)c1cc(CNCCCC(F)(F)F)c(O)c2c1C[C@H]1C[C@H]3[C@H](N(C)C)C(O)=C(C(N)=O)C(=O)[C@@]3(O)C(O)=C1C2=O`, the MIC with E. coli mL308 225 (setting [1]) and in the test with S. aureus RN450 (setting [2]) was below 4 µg/mL throughout.

As for `CN(C)c1cc(NC(=S)Nc2ccc([N+](=O)[O-])cc2)c(O)c2c1C[C@H]1C[C@H]3[C@H](N(C)C)C(O)=C(C(N)=O)C(=O)[C@@]3(O)C(O)=C1C2=O` [DA], the MIC was above 4 µg/mL in the test on E. coli mL308 225 (setting [5]) and below 4 µg/mL in the test with S. aureus RN450 (setting [6]).

`CCc1cc(C(C)=O)c(O)c2c1C[C@H]1C[C@H]3[C@H](N(C)C)C(O)=C(C(N)=O)C(=O)[C@@]3(O)C(O)=C1C2=O` [IY]: the MIC in the test on E. coli mL308 225 (setting [5]) was above 4 µg/mL; in the test with S. aureus RN450 (setting [6]) it was below 4 µg/mL.

With `CN(C)c1cc(CN(Cc2ccn[nH]2)Cc2ccn[nH]2)c(O)c2c1C[C@H]1C[C@H]3[C@H](N(C)C)C(O)=C(C(N)=O)C(=O)[C@@]3(O)C(O)=C1C2=O`, the MIC with E. coli mL308 225 (setting [1]) and in the test on S. aureus RN450 (setting [2]) was above 4 µg/mL each time.

In the case of `CC(C)COC(=O)NCc1cc(N(C)C)c2c(c1O)C(=O)C1=C(O)[C@]3(O)C(=O)C(C(N)=O)=C(O)[C@H](N(C)C)[C@@H]3C[C@@H]1C2` [EQ], the results for the MIC with E. coli mL308 225 (setting [5]) and in the test with S. aureus RN450 (setting [6]) were above 4 µg/mL and below 4 µg/mL, respectively.

Take `CC(=O)/C=C/c1ccc(O)c2c1C[C@H]1C[C@H]3[C@H](N(C)C)C(O)=C(C(N)=O)C(=O)[C@@]3(O)C(O)=C1C2=O`: the MIC with E. coli mL308 225 (setting [1]) was above 4 µg/mL; in the test on S. aureus RN450 (setting [2]) it was below 4 µg/mL.

As to `CN(C)Cc1cc(N(C)C)c2c(c1O)C(=O)C1=C(O)[C@]3(O)C(=O)C(C(N)=O)=C(O)[C@@H](N(C)C)[C@@H]3C[C@@H]1C2`, the MIC is above 4 µg/mL in the test with E. coli mL308 225 (setting [1]) and below 4 µg/mL in the test with S. aureus RN450 (setting [2]).

In the case of `CN(C)C1C(O)=C(C(N)=O)C(=O)[C@@]2(O)C(O)=C3C(=O)c4c(O)c(CN)cc(-c5ccc(C(C)(C)C)cc5)c4C[C@H]3C[C@@H]12` (stereo partly shown) [HJ], the MIC in the test on E. coli mL308 225 (setting [5]) and in the test with S. aureus RN450 (setting [6]) was below 4 µg/mL in each case.
